From ChEMBL document CHEMBL1143192, “Anti-HIV-1 entry optimization of novel imidazopiperidine-tropane CCR5 antagonists” (Bioorg Med Chem Lett, 2008)

Experiments:
Format in all cases: ADME, organism-based
[1] = Half life in rat at 30 mg/kg, po; set-up: dose 30 mg/kg, route oral; conditions: in vivo
[2] = AUC in rat at 30 mg/kg, po; set-up: dose 30 mg/kg, route oral; conditions: plasma
[3] = Half life in rat at 5 mg/kg, iv; set-up: dose 5 mg/kg, route intravenous; conditions: in vivo
[4] = Cmax in rat at 30 mg/kg, po; set-up: dose 30 mg/kg, route oral; conditions: in vivo
[5] = AUC in rat at 5 mg/kg, iv; set-up: dose 5 mg/kg, route intravenous; conditions: plasma
[6] = Oral bioavailability in rat at 30 mg/kg; conditions: in vivo
[7] = Cmax in rat at 5 mg/kg, iv; set-up: dose 5 mg/kg, route intravenous; conditions: in vivo
[8] = Clearance in rat at 5 mg/kg, iv; set-up: dose 5 mg/kg, route intravenous; conditions: in vivo

CC(=O)N1CCc2c(nc(C)n2[C@@H]2C[C@H]3CC[C@@H](C2)N3CCCN(C(=O)Nc2ccc(C(F)(F)F)cc2)c2ccccc2)C1
half-life [1]: 7.2 h
AUC [2]: 8990 ng·h/mL
half-life [3]: 10.7 h
Cmax [4]: 540 ng/mL
AUC [5]: 2890 ng·h/mL
bioavailability [6]: 52%
Cmax [7]: 860 ng/mL
clearance [8]: 28.8 mL/min/kg
